Results published in PubChem BioAssay (NCI).
Several values for one entry are separate records, joined by “and”; a condition that tells them apart may be missing. Identical values can stand only once.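 Dose response: 5 concentrations. Exposure: 48 h. Format: 96-well plates. Endpoint: linear interpolation; highest concentration if not reached. Abbreviation: GI50, concentration required for 50% inhibition of growth. TGI: total growth inhibition.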

Columns and labels:
Test in all cases: NCI tumour cell line growth inhibition, 48 h
HS 578T breast = tested on: HS 578T breast
HOP-18 NSCLC = tested on: HOP-18 NSCLC
DMS 114 small cell lung = tested on: DMS 114 small cell lung
LXFL 529 NSCLC = tested on: LXFL 529 NSCLC
RXF-631 renal = tested on: RXF-631 renal
MDA-N = tested on: MDA-N

SMILES: CN1c2ccccc2C(C)(C)C12C=Cc1cc(O)ccc1O2 (stereo not drawn)
- GI50 (HS 578T breast): 1970 nM
- TGI (HS 578T breast): 5.17 µM

SMILES: CCc1cccc(C(C)C)c1N1C(=O)C(=O)C(c2nc3ccccc3s2)C(=O)C1=O
- TGI (HOP-18 NSCLC): > 50 µM
- TGI (DMS 114 small cell lung): > 50 µM
- TGI (LXFL 529 NSCLC): > 50 µM

SMILES: C1CCN(c2nc(=[N+]3CCCCC3)ss2)CC1
- TGI (HOP-18 NSCLC): > 100 µM
- TGI (DMS 114 small cell lung): > 100 µM
- TGI (LXFL 529 NSCLC): > 100 µM
- TGI (RXF-631 renal): > 100 µM

SMILES: Cc1cc(N(CCNc2ccnc3cc(Cl)ccc23)Cc2ccco2)nc(Cl)n1
- GI50 (HS 578T breast): 2430 nM
- TGI (HS 578T breast): 6.28 µM

SMILES: O=C(Nc1nc2ncn(CCNCc3ccccc3)c2c(=O)[nH]1)c1ccccc1
- TGI (HOP-18 NSCLC): > 100 µM
- TGI (DMS 114 small cell lung): > 100 µM
- TGI (LXFL 529 NSCLC): > 100 µM
- TGI (RXF-631 renal): > 100 µM

SMILES: C[C@@H](CO)[C@@H]1CCC=C2CC[C@]3(C)[C@H](CC[C@@H]4[C@@]5(C)CCCNC(C)(C)[C@@H]5CC[C@]43C)[C@H]21
- GI50 (HS 578T breast): 2080 nM
- TGI (HS 578T breast): 5.19 µM

SMILES: COC(=O)CCCC(=O)O
- TGI (HS 578T breast): > 100 µM
- TGI (MDA-N): > 100 µM

SMILES: COc1ccc2c(c1)n([O-])c1ccccc1[n+]2=O
- GI50 (HS 578T breast): > 100000 nM and 30400 nM
- TGI (HS 578T breast): > 100 µM
- TGI (MDA-N): > 100 µM

SMILES: CC1C[C@@H]2C(=O)NC(=O)[C@@H]2c2c1c1ccccc1n2C (stereo partly drawn)
- TGI (DMS 114 small cell lung): > 100 µM
- TGI (LXFL 529 NSCLC): > 100 µM
- TGI (RXF-631 renal): > 100 µM

SMILES: CN(CC(=O)N(Cc1ccc(C2CCCCC2)cc1)c1ccc(C(=O)O)c(O)c1)S(=O)(=O)c1c(F)c(F)c(F)c(F)c1F
- GI50 (HS 578T breast): 6920 nM
- TGI (HS 578T breast): 35.1 µM

SMILES: COc1cc2c3c(n(CCCI)c(=O)c2cc1OC)-c1cc2c(cc1C3=O)OCO2
- GI50 (HS 578T breast): > 100000 nM
- TGI (HS 578T breast): > 100 µM

SMILES: COc1cc2c(cc1C)NC(=O)/C2=C\c1cccc(Oc2ccccc2)c1
- GI50 (HS 578T breast): 39100 nM
- TGI (HS 578T breast): 89.8 µM

SMILES: O=C(Cn1ccnc1[N+](=O)[O-])c1ccc(F)cc1
- TGI (HOP-18 NSCLC): > 100 µM
- TGI (DMS 114 small cell lung): > 100 µM
- TGI (LXFL 529 NSCLC): > 100 µM

SMILES: O=[N+]([O-])c1cccc(C2ON2C2CCCCC2)c1 (stereo not drawn)
- TGI (HOP-18 NSCLC): > 100 µM
- TGI (DMS 114 small cell lung): 42.9 µM
- TGI (LXFL 529 NSCLC): 45.6 µM

SMILES: CC(C)(C)c1cc2c3c(c1)C(C(F)(F)F)(C(F)(F)F)O[Te]3(C)OC2(C(F)(F)F)C(F)(F)F
- TGI (HOP-18 NSCLC): > 100 µM
- TGI (DMS 114 small cell lung): > 100 µM
- TGI (LXFL 529 NSCLC): > 100 µM

SMILES: COc1ccc(-c2nc3ccccn3c2/C=C/C(=O)c2cc(OC)c(OC)c(OC)c2)cc1
- GI50 (HS 578T breast): 2890 nM
- TGI (HS 578T breast): 51.7 µM

SMILES: NCCCNCCCCN(CCCN)/[N+]([O-])=N\O
- TGI (HOP-18 NSCLC): > 100 µM
- TGI (DMS 114 small cell lung): > 100 µM
- TGI (LXFL 529 NSCLC): > 100 µM
- TGI (RXF-631 renal): > 100 µM

SMILES: S=c1cc(S)sc2c1c(=S)sc1nc3ccccn3c(=S)c12
- TGI (HOP-18 NSCLC): > 100 µM
- TGI (DMS 114 small cell lung): 40.1 µM

SMILES: C[C@]1(CO)CCC[C@@]2(C)C1CC[C@H]1CC3C[C@]12CC[C@]3(C)O (stereo partly drawn)
- TGI (DMS 114 small cell lung): > 100 µM
- TGI (RXF-631 renal): > 100 µM

SMILES: CN1CCN(c2ccc3nc(-c4ccc5nc(-c6ccc(OCCC(C)(C)C)cc6)[nH]c5c4)[nH]c3c2)CC1
- GI50 (HS 578T breast): 10500 nM
- TGI (HS 578T breast): 37.1 µM

SMILES: Nc1nc(-c2ccccc2)nc(N)c1N=O
- GI50 (HS 578T breast): 8140 nM
- TGI (HS 578T breast): > 100 µM

SMILES: Clc1ccc(C2SCc3nc4ccccc4n32)cc1Cl (stereo not drawn)
- TGI (DMS 114 small cell lung): 36 µM
- TGI (LXFL 529 NSCLC): 24 µM

SMILES: O=CC[C@H]1CCc2ccccc2C12CCC(=O)CC2
- TGI (DMS 114 small cell lung): > 100 µM
- TGI (LXFL 529 NSCLC): > 100 µM
- TGI (RXF-631 renal): > 100 µM

SMILES: O=C1c2ccccc2C(=O)c2c1ccc(C1C(=O)c3ccccc3C1=O)c2-c1c(C2C(=O)c3ccccc3C2=O)ccc2c1C(=O)c1ccccc1C2=O
- TGI (HS 578T breast): > 100 µM
- TGI (MDA-N): > 100 µM

SMILES: Fc1ccc(Nc2nc3nonc3nc2Nc2ccc(F)cc2)cc1
- GI50 (HS 578T breast): 370 nM
- TGI (HS 578T breast): 4.03 µM

SMILES: CCCCCCCCCc1cccc(N2C(N)=NC(N)=NC2(C)C)c1
- TGI (HS 578T breast): 6.48 µM

SMILES: O=[N+]([O-])c1c(Br)sc(Br)c1[N+](=O)[O-]
- GI50 (HS 578T breast): 2590 nM
- TGI (HS 578T breast): 9.53 µM

SMILES: CCc1cccc(C(C)C)c1NC(=O)C(=O)C(CC(=O)Nc1ccc(Cl)c(Cl)c1)C(=O)OC (stereo not drawn)
- TGI (HOP-18 NSCLC): > 100 µM
- TGI (DMS 114 small cell lung): > 100 µM
- TGI (RXF-631 renal): > 100 µM

SMILES: Nc1nc(-c2ccc(F)cc2)c(-c2ccc3ncccc3n2)s1
- GI50 (HS 578T breast): 9610 nM
- TGI (HS 578T breast): > 25 µM

SMILES: C1=CC=C2NCCCNC3=CC=CC=CC3=NCCCN=C2C=C1
- TGI (DMS 114 small cell lung): > 100 µM
- TGI (LXFL 529 NSCLC): > 100 µM
- TGI (RXF-631 renal): > 100 µM

SMILES: COc1cc(OC)c(C2CC=Cc3c(OC)cc(OC)c(OC)c32)cc1OC (stereo not drawn)
- TGI (HOP-18 NSCLC): > 100 µM
- TGI (DMS 114 small cell lung): > 100 µM
- TGI (LXFL 529 NSCLC): > 100 µM

SMILES: O=C(CC1(O)C(=O)Nc2c(Cl)cc(Cl)cc21)c1cccc2ccccc12 (stereo not drawn)
- TGI (HOP-18 NSCLC): 32.2 µM
- TGI (DMS 114 small cell lung): 35.6 µM
- TGI (LXFL 529 NSCLC): 28.6 µM
- TGI (RXF-631 renal): 43.3 µM

SMILES: COc1cc(OC)c(/C=C/c2cnc3ccccc3n2)c(OC)c1
- TGI (HS 578T breast): > 10 µM
- TGI (MDA-N): > 10 µM

SMILES: COCCCNC(=O)CC(=O)NCCCOC
- TGI (HOP-18 NSCLC): > 100 µM
- TGI (DMS 114 small cell lung): > 100 µM
- TGI (LXFL 529 NSCLC): > 100 µM
- TGI (RXF-631 renal): > 100 µM

SMILES: COc1cc2c(cc1Nc1nc(Nc3ccsc3C(N)=O)c3cc[nH]c3n1)N(C(=O)CN(C)C)CCC2(C)C
- GI50 (HS 578T breast): 1110 nM
- TGI (HS 578T breast): 5.13 µM

SMILES: Cc1cccc2c(=O)c3c(sc12)c(NCCNCCO)nc1ccccc13
- GI50 (HS 578T breast): 1620 nM
- TGI (HS 578T breast): 3.74 µM

SMILES: O=C(NCc1ccc(Cn2c(=O)sn(-c3ccccc3)c2=O)cc1)OCc1ccc2c(Br)cc(Br)c(O)c2n1
- GI50 (HS 578T breast): 1620 nM
- TGI (HS 578T breast): 4.9 µM

SMILES: CCOC(=O)C(=Cc1ccc(Oc2ccccc2)cc1)C(=O)OCC
- TGI (HOP-18 NSCLC): 26.8 µM
- TGI (DMS 114 small cell lung): 10.9 µM
- TGI (LXFL 529 NSCLC): 6.39 µM
- TGI (RXF-631 renal): 12.1 µM
- TGI (MDA-N): 18.6 µM
